{"source": "patent US11913003B2", "about": "“Method for improving soybean transformation efficiency” (BEIJING DABEINONG BIOTECHNOLOGY CO., LTD., priority 2017, dated 2024)", "tested_on": "soybean meristem blocks", "test": "Agrobacterium-mediated soybean transformation (SULE selective marker) with screening by external (dropwise) application of tribenuron methyl; positive plants verified by TaqMan", "format": "cell-based, Glycine max", "experimental": "Screening of soybean meristem block: After the recovery period, the meristem block was transferred to 60 ml of a proliferation medium without a selective agent (tribenuron methyl) (B5 salt 3.1 g/L, B5 vitamin, MES 1 g/L, sucrose 30 g/L, 6-BAP 1 mg/L, agar 8 g/L, cephalosporin 150 mg/L, glutamic acid 100 mg/L, aspartic acid 100 mg/L, pH 5.6), so that the soybean meristem block grew rapidly, and the screening and culturing was carried out for 5-9 days, preferably 7 days, under the conditions of a temperature of 24° C. and a photoperiod (light/dark) of 16:8. After the above soybean meristem block was proliferated for 5-9 days, tribenuron methyl herbicide (95% tribenuron methyl wettable powder) was externally applied in concentration of 1, 3, 5 and 7 μg to per ml of the proliferation medium, respectively, in which the diluted tribenuron methyl herbicide solution was added to the proliferation medium to cause selective growth of the transformed cells, and the screening and culturing was carried out at a temperature of 24° C. and a photoperiod (light/dark) of 16:8 for 2 weeks.\nRegeneration of plant from resistant soybean tissue block: The resistant tissue blocks after the above screening treatment with four concentrations of tribenuron methyl were separately taken out from the proliferation medium containing tribenuron methyl, the dead tissues and cotyledons attached thereto were removed, the resistant tissue blocks were transferred to (obliquely inserted into) a B5 differentiation medium without selective agent (tribenuron methyl) (B5 salt 3.1 g/L, B5 vitamin, MES 1 g/L, sucrose 30 g/L, ZT 1 mg/L, agar 8 g/L, cephalosporin 150 mg/L, glutamic acid 50 mg/L, aspartic acid 50 mg/L, gibberellin 1 mg/L, auxin 1 mg/L, pH 5.6), and cultured for differentiation at a temperature of 24° C. and a photoperiod (light/dark) of 16:8 for 14-20 days, preferably 18 days. After the differentiation and growth of the above screened four resistant soybean tissue blocks for 14-20 days, […] of tribenuron methyl herbicide (95% tribenuron methyl wettable powder) was externally applied to per ml of the B5 differentiation medium, in which the diluted solution of tribenuron methyl herbicide was added dropwise to the B5 differentiation medium by a pipette, and the screening and culturing was continued at a temperature of 24° C. and a photoperiod (light/dark) of 16:8 until the resistant tissue blocks (transformed cells) regenerated into plants or the regenerated plants could survive.\nIn the present example, in the screening step of the above soybean meristem blocks and the plant regenerating step of the resistant soybean tissue blocks, the tribenuron methyl herbicide (95% tribenuron methyl wettable powder) was applied to per ml of the proliferation medium or the B5 differentiation medium, and the concentration examples of the diluted tribenuron methyl herbicide solution added dropwise to the proliferation medium or the B5 differentiation medium were shown in Table 1. The proliferated soybean meristem blocks were screened for tolerance to tribenuron methyl herbicide, and the specific information of the 12 treatments was shown in Table 2, and the screening results for each treatment were shown in Table 3, in which each treatment was repeated for 3 times.\nThe seedlings differentiated from the above 12 treatments were transferred to a B5 rooting medium (B5 salt 3.1 g/L, B5 vitamin, MES 1 g/L, sucrose 30 g/L, agar 8 g/L, cephalosporin 150 mg/L, indole-3-butyric acid (IBA) 1 mg/L, pH 5.6), cultured at 25° C. to a height of about 10 cm, and moved to a greenhouse to grow until fructification. The transgenic plants could be obtained by culturing at 26° C. for 16 hours and then at 20° C. for 8 hours per day in a greenhouse. […]", "key": {"[1]": {"settings": "Treatment 1: 1 μg/ml proliferation medium, 3 μg/ml B5 differentiation medium"}, "[2]": {"settings": "Treatment 1: 1 μg/ml proliferation medium, 3 μg/ml B5 differentiation medium, 50 initially germinated soybeans"}, "[3]": {"settings": "Treatment 2: 1 μg/ml proliferation medium, 5 μg/ml B5 differentiation medium"}, "[4]": {"settings": "Treatment 2: 1 μg/ml proliferation medium, 5 μg/ml B5 differentiation medium, 55 initially germinated soybeans"}, "[5]": {"settings": "Treatment 3: 1 μg/ml proliferation medium, 7 μg/ml B5 differentiation medium"}, "[6]": {"settings": "Treatment 3: 1 μg/ml proliferation medium, 7 μg/ml B5 differentiation medium, 75 initially germinated soybeans"}, "[7]": {"settings": "Treatment 4: 3 μg/ml proliferation medium, 3 μg/ml B5 differentiation medium"}, "[8]": {"settings": "Treatment 4: 3 μg/ml proliferation medium, 3 μg/ml B5 differentiation medium, 55 initially germinated soybeans"}, "[9]": {"settings": "Treatment 5: 3 μg/ml proliferation medium, 5 μg/ml B5 differentiation medium"}, "[10]": {"settings": "Treatment 5: 3 μg/ml proliferation medium, 5 μg/ml B5 differentiation medium, 60 initially germinated soybeans"}, "[11]": {"settings": "Treatment 6: 3 μg/ml proliferation medium, 7 μg/ml B5 differentiation medium, 45 initially germinated soybeans"}, "[12]": {"settings": "Treatment 7: 5 μg/ml proliferation medium, 3 μg/ml B5 differentiation medium"}, "[13]": {"settings": "Treatment 7: 5 μg/ml proliferation medium, 3 μg/ml B5 differentiation medium, 50 initially germinated soybeans"}, "[14]": {"settings": "Treatment 8: 5 μg/ml proliferation medium, 5 μg/ml B5 differentiation medium"}, "[15]": {"settings": "Treatment 8: 5 μg/ml proliferation medium, 5 μg/ml B5 differentiation medium, 70 initially germinated soybeans"}, "[16]": {"settings": "Treatment 9: 5 μg/ml proliferation medium, 7 μg/ml B5 differentiation medium"}, "[17]": {"settings": "Treatment 9: 5 μg/ml proliferation medium, 7 μg/ml B5 differentiation medium, 43 initially germinated soybeans"}, "[18]": {"settings": "Treatment 10: 7 μg/ml proliferation medium, 3 μg/ml B5 differentiation medium"}, "[19]": {"settings": "Treatment 10: 7 μg/ml proliferation medium, 3 μg/ml B5 differentiation medium, 80 initially germinated soybeans"}, "[20]": {"settings": "Treatment 11: 7 μg/ml proliferation medium, 5 μg/ml B5 differentiation medium"}, "[21]": {"settings": "Treatment 11: 7 μg/ml proliferation medium, 5 μg/ml B5 differentiation medium, 75 initially germinated soybeans"}, "[22]": {"settings": "Treatment 12: 7 μg/ml proliferation medium, 7 μg/ml B5 differentiation medium"}, "[23]": {"settings": "Treatment 12: 7 μg/ml proliferation medium, 7 μg/ml B5 differentiation medium, 80 initially germinated soybeans"}}}
{"smiles": "COC(=O)c1ccccc1S(=O)(=O)NC(=O)N(C)c1nc(C)nc(OC)n1", "note": "[tribenuron methyl]", "values": [{"measurement": "Positive plant rate", "setting": "[1]", "value": 22.2, "unit": "%"}, {"measurement": "Transformation efficiency", "setting": "[1]", "value": 12.0, "unit": "%"}, {"measurement": "Number of positive plants", "setting": "[2]", "value": 6, "unit": "plant"}, {"measurement": "Number of seedlings", "setting": "[2]", "value": 27, "unit": "plant"}, {"measurement": "Positive plant rate", "setting": "[3]", "value": 25.0, "unit": "%"}, {"measurement": "Transformation efficiency", "setting": "[3]", "value": 10.9, "unit": "%"}, {"measurement": "Number of positive plants", "setting": "[4]", "value": 6, "unit": "plant"}, {"measurement": "Number of seedlings", "setting": "[4]", "value": 24, "unit": "plant"}, {"measurement": "Positive plant rate", "setting": "[5]", "value": 50.0, "unit": "%"}, {"measurement": "Transformation efficiency", "setting": "[5]", "value": 6.7, "unit": "%"}, {"measurement": "Number of positive plants", "setting": "[6]", "value": 5, "unit": "plant"}, {"measurement": "Number of seedlings", "setting": "[6]", "value": 10, "unit": "plant"}, {"measurement": "Positive plant rate", "setting": "[7]", "value": 20.0, "unit": "%"}, {"measurement": "Transformation efficiency", "setting": "[7]", "value": 9.1, "unit": "%"}, {"measurement": "Number of positive plants", "setting": "[8]", "value": 5, "unit": "plant"}, {"measurement": "Number of seedlings", "setting": "[8]", "value": 25, "unit": "plant"}, {"measurement": "Positive plant rate", "setting": "[9]", "value": 21.4, "unit": "%"}, {"measurement": "Transformation efficiency", "setting": "[9]", "value": 10.0, "unit": "%"}, {"measurement": "Number of positive plants", "setting": "[10]", "value": 6, "unit": "plant"}, {"measurement": "Number of seedlings", "setting": "[10]", "value": 28, "unit": "plant"}, {"measurement": "Positive plant rate", "setting": "Treatment 6: 3 μg/ml proliferation medium, 7 μg/ml B5 differentiation medium", "value": 47.8, "unit": "%"}, {"measurement": "Number of positive plants", "setting": "[11]", "value": 11, "unit": "plant"}, {"measurement": "Number of seedlings", "setting": "[11]", "value": 23, "unit": "plant"}, {"measurement": "Positive plant rate", "setting": "[12]", "value": 36.8, "unit": "%"}, {"measurement": "Transformation efficiency", "setting": "[12]", "value": 14.0, "unit": "%"}, {"measurement": "Number of positive plants", "setting": "[13]", "value": 7, "unit": "plant"}, {"measurement": "Number of seedlings", "setting": "[13]", "value": 19, "unit": "plant"}, {"measurement": "Positive plant rate", "setting": "[14]", "value": 25.0, "unit": "%"}, {"measurement": "Transformation efficiency", "setting": "[14]", "value": 5.7, "unit": "%"}, {"measurement": "Number of positive plants", "setting": "[15]", "value": 4, "unit": "plant"}, {"measurement": "Number of seedlings", "setting": "[15]", "value": 16, "unit": "plant"}, {"measurement": "Positive plant rate", "setting": "[16]", "value": 62.5, "unit": "%"}, {"measurement": "Transformation efficiency", "setting": "[16]", "value": 11.6, "unit": "%"}, {"measurement": "Number of positive plants", "setting": "[17]", "value": 5, "unit": "plant"}, {"measurement": "Number of seedlings", "setting": "[17]", "value": 8, "unit": "plant"}, {"measurement": "Positive plant rate", "setting": "[18]", "value": 60.0, "unit": "%"}, {"measurement": "Transformation efficiency", "setting": "[18]", "value": 11.3, "unit": "%"}, {"measurement": "Number of positive plants", "setting": "[19]", "value": 9, "unit": "plant"}, {"measurement": "Number of seedlings", "setting": "[19]", "value": 15, "unit": "plant"}, {"measurement": "Positive plant rate", "setting": "[20]", "value": 77.7, "unit": "%"}, {"measurement": "Transformation efficiency", "setting": "[20]", "value": 9.3, "unit": "%"}, {"measurement": "Number of positive plants", "setting": "[21]", "value": 7, "unit": "plant"}, {"measurement": "Number of seedlings", "setting": "[21]", "value": 9, "unit": "plant"}, {"measurement": "Positive plant rate", "setting": "[22]", "value": 80.0, "unit": "%"}, {"measurement": "Transformation efficiency", "setting": "[22]", "value": 5.0, "unit": "%"}, {"measurement": "Number of positive plants", "setting": "[23]", "value": 4, "unit": "plant"}, {"measurement": "Number of seedlings", "setting": "[23]", "value": 5, "unit": "plant"}]}
